# According to patent US7598279B2, “Neurotherapeutic azole compounds” (SK Holdings Co., Ltd., priority 2005, dated 2009):
# How the values were obtained:
# [1] = system: mice; experiment: Forced swimming test (FST); format: in vivo; settings: 30 min after dosing
# Description: The “Forced swimming test (FST)” for antidepressant activity was also carried out. The procedure employed in the FST for antidepressant is as follows. The compounds to be tested were dissolved in 30% PEG400 and administered ip and po into animals. 30 min later, the immobility time during post 4 minutes of 6 minutes experiment time was measured.
# [2] = system: TBPS site of GABA-A receptor; experiment: GABA-A receptor (TBPS site) binding assay, [35S]TBPS; settings: rat brain membranes, 2 nM [35S]TBPS
# Description: Compounds of the inventions were tested for specific binding to TBPS (t-butyl bicyclophosphorothionate) site, an allosteric modulator site of GABA-A receptor as modified from G. Maksay and M. Simonyi, Eur. J. Pharmacol. 1985, 117(2), 275. and Gee, K. W. et al., J. Pharm. Exp. Ther. 1988, 246, 803.
# This binding assay was performed using [35S] TBPS as radioligand in washed crude membrane homogenate from rat brains. Membrane preparations were carried out according to procedure described below. Sprague-Dawley (SD) rat weighting 230 g were killed by decapitation and their whole brains were rapidly removed and its cerebellums were excluded. The dissected brains were homogenized for 30 sec in 10 volumes (W/V) of ice-cold 0.32 M Sucrose and 50 mM Tris-citrate buffer pH 7.4 using glass homogenate. The homogenate was centrifuged at 2,000×g for 5 min at 4° C. And the supernatant re-centrifuged at 50,000×g for 20 min at 4° C. The supernatant was discarded and the resulting pellets were resuspended in 10 volumes (W/V) of ice-cold 50 mM Tris-citrate buffer pH 7.4. And then the suspended pellet was centrifuged at 50,000×g for 20 min at 4° C. The resulting pellets were suspended again in 32 volumes (W/V) of ice-cold 50 mM Tris-citrate buffer pH 7.4 with 0.05% Triton X-100 and then incubated in 37° C. for 60 min using a water bath. The incubated suspension was centrifuged at 50,000×g for 20 min at 4° C. Resuspending and centrifugation step of the remained pellets were repeated twice at the same manner and final pellets were resuspended in 10 volumes (W/V) of ice-cold 50 mM Tris-citrate buffer pH 7.4 to enable distribution of 2 ml aliquot in microcentrifuge tube, which were used immediately or kept at −80° C. for no more than 1 month before use.
# For TBPS site binding assay, 50 μl of the tested compound were added to 100 μg membrane protein suspended in 0.15 ml of 50 mM Tris-citrate buffer with 200 mM NaCl pH 7.4 in presence of 2 nM of [35S] TBPS. The incubation of mixtures were carried out for 1.5 hours at 25° C. and then rapidly filtered over Whatman GF/C glass fiber filters, followed by twice 4.5 ml rinses with ice-cold incubation buffer. The filters were placed in counting vials and 4 ml scintillation solution. The vials were counted in a Beckman scintillation counter. Non-specific binding was determined in parallel incubations with 100 μM picrotoxin.
# IC50 values for TBPS site binding assay was calculated using Graphpad PRISM v.3.00.
# [3] = system: mice; experiment: Maximal ElectroShock (MES)-induced tonic seizure test; format: in vivo; settings: for responders at 30 mg/kg / ED50: Mus musculus; for responders at 30 mg/kg: read-out: Mice MES Protection % (mpk/peak time); for ED50: read-out: Mice MES ED50 (mpk/peak time)
# Description: The “Maximal ElectroShock (MES)” test is a well-established pharmacological screening method for anticonvulsants against tonic-clonic seizures. The procedure employed in the MES test for anticonvulsants is as follows. The compounds to be tested were dissolved in 30% PEG400 and administered ip and po into animals. After the designated number of hours, maximal electroshock (50 mA, 60 Hz, 0.2 sec) was applied into animals via corneal electrodes using IITC Life Science model 11A Shocker. […] Median efficacy dose (ED50) levels were determined using three different dose levels with at least 8 mice in each group.
# [4] = system: mice; experiment: Pentylenetetrazol (PTZ)-induced clonic seizure test; format: in vivo; settings: for ED50 / responders at 30 mg/kg: Mus musculus; for ED50: sc, read-out: Mice PTZ ED50 (mpk/peak time); for responders at 30 mg/kg: read-out: Mice PTZ Protection % (mpk/peak time)
# Description: The “Pentylenetetrazol (PTZ)” test for anticonvulsant and antianxiety activity was also carried out.
# The procedure employed in the PTZ test is as follows. The compounds to be tested were dissolved in 30% PEG400 and administered ip and po into animals. After the designated number of hours, each animal was injected subcutaneously with 100 mg/kg of PTZ (CD97 dose) and observed for up to 30 minutes for the presence or absence of clonic spasms over 5 seconds. Median efficacy dose (ED50) levels were determined using three different dose levels with 8 mice in each group.
# [5] = system: mice; experiment: Light-Dark Box (LDB) test; format: in vivo
# Description: Light-Dark Box (LDB) test, one of the unconditioned conflict tests, was used to investigate anxiolytic activity for several drugs such as Diazepam, Buspirone, etc (Allikmets et al, 1996; Belzung and Griebel, 2001; Cutler and Aitken, 1991; Leyre et al, 2004). In the present study, anxiolytic effect of azole compounds containing carbamoyl group represented by general structural formula (IX) was investigated on the LDB test in mice.
# The animals were treated with compound 30 min prior to testing. The light-dark box consisted of a plexiglas apparatus measuring 45 cm×27 cm×27 cm (L×W×H), and was partitioned into two compartments, one fully opaque (dark compartment made of black plexiglas: 18 cm of total length of apparatus), while the second was lit from the compartment ceiling by a 100 W bulb. A small opening (7×7 cm) in the partition wall allowed free passage between the light and dark compartments.
# Animals were placed at the lit compartment first, and the latency for escape into dark was checked and tested in the LDB for 5 min after the first entering into dark box. The animal, which the latency was over 2 min, was excluded from the test. Total time spent in the light compartment was counted. Movement of animal was checked through the TV-CCD camera by an experienced observer blind to the conditions of the experiment. A mouse whose four paws were in the new box was considered as having changed box.
# [6] = treated 30 min prior to testing, dose not given
# [7] = treated 30 min prior to testing
SMILES,Mice FST Reduction of immobility % ([1]; dose not given) [%],TBPS Inhibition % (At 100 μM) [2] [%],ED50 ([3]; 0.5 h) [mg/kg],Mice FST Reduction of immobility % [1],"Mice LDB % Duration in the light box [5, 6]",other results
"CC(C(OC(N)=O)c1ccc(Cl)c(Cl)c1)n1ncnn1 (centres unmarked) [Example 80, Carbamic acid 1-(3,4-dichloro-phenyl)-2-tetrazol-2-yl-propyl ester]",50.6,64.8,–,–,–,responders at 30 mg/kg ([3]; 4 h): 33.3%
"NC(=O)O[C@@H](Cn1ncnn1)c1ccc(Cl)c(Cl)c1 [Example 88, Carbamic acid (R)-1-(3,4-dichloro-phenyl)-2-tetrazol-2-yl-ethyl ester]",88.4,52.8,19.1,–,–,–
"NC(=O)OC(Cn1ncnn1)c1c(Cl)cccc1Cl (centres unmarked) [Example 98, Carbamic acid 1-(2,6-dichloro-phenyl)-2-tetrazol-2-yl-ethyl ester]",31.5,29.9,6.03,–,–,ED50 ([4]; 0.5 h): 11.6 mg/kg
"NC(=O)O[C@H](Cn1nccn1)c1ccc(Cl)cc1Cl [Example 114, Carbamic acid (S)-1-(2,4-dichloro-phenyl)-2-[1,2,3]triazol-2-yl-ethyl ester]",–,–,–,N.S,172.5% ^,ED50 ([4]; 1 h): 16.9 mg/kg; IC50 [2]: 107 µM; ED50 ([3]; 1 h): 33.9 mg/kg
"NC(=O)O[C@@H](Cn1ncnn1)c1c(Cl)cccc1Cl [Example 126, Carbamic acid (R)-1-(2,6-dichloro-phenyl)-2-tetrazol-2-yl-ethyl ester]",72.0,0.3,2.7,–,241.5% ^,ED50 ([4]; 0.5 h): 5.06 mg/kg
"NC(=O)O[C@@H](Cn1nccn1)c1ccc(Cl)cc1 [Example 86, Carbamic acid (R)-1-(4-chloro-phenyl)-2-[1,2,3]triazol-2-yl-ethyl ester]",–,18.9,21.4,N.S,–,–
"NC(=O)OC(Cn1nccn1)c1c(Cl)cccc1Cl (centres unmarked) [Example 99, Carbamic acid 1-(2,6-dichloro-phenyl)-2-[1,2,3]triazol-2-yl-ethyl ester]",–,23.6,11.6,N.S,–,responders at 30 mg/kg ([4]; 2 h): 100%
"NC(=O)O[C@@H](Cn1ncnn1)c1ccc(Cl)cc1Cl [Example 103, Carbamic acid (R)-1-(2,4-dichloro-phenyl)-2-tetrazol-2-yl-ethyl ester]",–,–,–,N.S,277.8% ^,ED50 ([4]; 1 h): 5.14 mg/kg; IC50 [2]: 13.4 µM; ED50 ([3]; 1 h): 19.2 mg/kg
"NC(=O)O[C@@H](Cn1ccnn1)c1ccc(Cl)cc1Cl [Example 130, Carbamic acid (R)-1-(2,4-dichloro-phenyl)-2-[1,2,3]triazol-1-yl-ethyl ester]",8.8,42.8,24,–,–,"ED50 ([4]; 0.5 h): 8 mg/kg; Mice LDB % Duration in the light box [5, 7]: N.S"
"NC(=O)O[C@@H](Cn1nccn1)c1ccc(Cl)cc1Cl [Example 115, Carbamic acid (R)-1-(2,4-dichloro-phenyl)-2-[1,2,3]triazol-2-yl-ethyl ester]",–,–,–,N.S,–,"ED50 ([4]; 1 h): 8.43 mg/kg; IC50 [2]: 4.3 µM; ED50 ([3]; 0.25 h): 12.7 mg/kg; Mice LDB % Duration in the light box ([5]; 10 mpk, ip): 245%^"
"NC(=O)O[C@@H](Cn1nccn1)c1ccccc1Cl [Example 33, Carbamic acid (R)-1-(2-chloro-phenyl)-2-[1,2,3]triazol-2-yl-ethyl ester]",26.2,–,9.72,–,–,"ED50 ([4]; 0.5 h): 8.18 mg/kg; Mice LDB % Duration in the light box [5, 7]: N.S"
"NC(=O)OC(COc1ccc(Cl)c(Cl)c1)Cn1ncnn1 (centres unmarked) [Example 148, Carbamic acid 2-(3,4-dichloro-phenoxy)-1-tetrazol-2-ylmethyl-ethyl ester]",–,76.1,–,N.S,–,responders at 30 mg/kg ([4]; 4 h): 66.7%; responders at 30 mg/kg ([3]; 0.5 h): 100%
"NC(=O)OC(Cn1ncnn1)c1ccccc1Cl (centres unmarked) [Example 2, Carbamic acid 1-(2-chloro-phenyl)-2-tetrazol-2-yl-ethyl ester]",–,–,8.6,N.S,180%^,ED50 ([4]; 0.5 h): 5.9 mg/kg
"NC(=O)NC(=O)OC(Cn1ncnn1)c1ccccc1Cl (centres unmarked) [Example 129, O-1-(2-Chloro-phenyl)-2-tetrazol-2-yl ethyl allophanate]",–,5.6,–,N.S,–,"Mice PTZ Protection % (mpk/peak time) ([4]; 3 mice, 30 mpk, 1 hr): 100% (30/1 hr); Mice MES ED50 (mpk/peak time) ([3]; mice, peak time 0.5 hr): 13.7/0.5 hr mpk"
"O=C(OC(Cn1ncnn1)c1ccccc1Cl)N1CCC(Cc2ccccc2)CC1 (centres unmarked) [Example 138, 4-Benzyl-piperidine-1-carboxylic acid 1-(2-chloro-phenyl)-2-tetrazol-2-yl-ethyl ester]",35.9,49.6,–,–,–,responders at 30 mg/kg ([4]; 4 h): 66.7%; responders at 30 mg/kg ([3]; 2 h): 100%
"NC(=O)OC(Cn1ncnn1)c1cc(Cl)ccc1Cl (centres unmarked) [Example 89, Carbamic acid 1-(2,5-dichloro-phenyl)-2-tetrazol-2-yl-ethyl ester]",–,27.6,–,N.S,167.4% ^,ED50 ([4]; 1 h): 14.5 mg/kg; ED50 ([3]; 1 h): 6.15 mg/kg
"NC(=O)O[C@H](Cn1ncnn1)c1ccc(Cl)cc1Cl [Example 113, Carbamic acid (S)-1-(2,4-dichloro-phenyl)-2-tetrazol-2-yl-ethyl ester]",–,–,–,N.S,−172% ^,ED50 ([4]; 1 h): 20.7 mg/kg; ED50 ([3]; 1 h): 13 mg/kg
